Values of other authors in patent US20110226621A1, “TARGET RECOGNITION MOLECULE AND A METHOD FOR IMMOBILIZING THE SAME” (Sharp Kabushiki Kaisha, priority 2009, published 2011).
Like-named read-outs stand apart in the source and are kept apart here.

Conditions: individual amino acid
[1] = Table 1 repeated in Example 1-1

Row | Structure (SMILES) | isoelectric point (Table 1 in summary) | isoelectric point [1]
1 | C[C@H](N)C(=O)O [alanine] | 6.00 | 6.00
2 | N=C(N)NCCC[C@H](N)C(=O)O [arginine] | 10.76 | 10.76
3 | NC(=O)C[C@H](N)C(=O)O [asparagine] | 5.41 | 5.41
4 | N[C@@H](CC(=O)O)C(=O)O [aspartic acid] | 2.77 | 2.77
5 | N[C@@H](CS)C(=O)O [cysteine] | 5.05 | 5.05
6 | N[C@@H](CCC(=O)O)C(=O)O [glutamic acid] | 3.22 | 3.22
7 | NCC(=O)O [glycine] | 5.97 | 5.97
8 | N[C@@H](Cc1c[nH]cn1)C(=O)O [histidine] | 7.59 | 7.59
9 | CC[C@H](C)[C@H](N)C(=O)O [isoleucine] | 6.05 | 6.05
10 | NCCCC[C@H](N)C(=O)O [lysine] | 9.75 | 9.75
11 | CSCC[C@H](N)C(=O)O [methionine] | 5.74 | 5.74
12 | N[C@@H](Cc1ccccc1)C(=O)O [phenylalanine] | 5.48 | 5.48
13 | O=C(O)[C@@H]1CCCN1 [proline] | 6.30 | 6.30
14 | N[C@@H](CO)C(=O)O [serine] | 5.68 | 5.68
15 | C[C@@H](O)[C@H](N)C(=O)O [threonine] | 6.16 | 6.16
16 | N[C@@H](Cc1c[nH]c2ccccc12)C(=O)O [tryptophan] | 5.89 | 5.89
17 | N[C@@H](Cc1ccc(O)cc1)C(=O)O [tyrosine] | 5.66 | 5.66
18 | CC(C)[C@H](N)C(=O)O [valine] | 5.96 | 5.96
